According to publication PMC9173784 (Proceedings of the National Academy of Sciences of the …, 2022):
Each block holds one molecule with its values, some of them ahead of it.

Legend:
[1] = system: GALR1; assay: Zn2+ inhibition assay, NanoBiT; assay type: cell-based, human
[2] = system: GALR2; assay: Zn2+ inhibition assay, NanoBiT; assay type: cell-based, human; settings: HEK-293T cells, pH 7.3
[3] = system: GALRs; settings: cited from earlier work
[4] = system: ionotropic glutamate AMPA receptors; settings: cited from earlier work
[5] = system: NMAR receptors; settings: cited from earlier work
[6] = molecular target: GALR1 Q92^2.61 to alanine (human) (UniProt P47211)
[7] = molecular target: GALR1 V274G (human) (UniProt P47211)
[8] = molecular target: GALR2 F271^7.32A (human) (UniProt O43603)
[9] = molecular target: GALR2 Q82^2.61 to alanine (human) (UniProt O43603)
[10] = molecular target: GALR2 R184^5.35A (human) (UniProt O43603)
[11] = molecular target: GALR1 F275 mutant (human) (UniProt P47211)
[12] = molecular target: GALR2 F264 mutant (human) (UniProt O43603)
[13] = system: GALRs; settings: cited from earlier work; remark: listed apart in the source
[14] = system: GALR1 or mutants; assay: cAMP inhibition assay; assay type: cell-based, human; settings: CHO cells
[15] = system: GALR2 or mutants; assay: IP1 accumulation assay; assay type: cell-based, human; settings: HEK-293T cells, 1 h
[16] = system: GALR1 and its mutants; assay: NanoBiT mini-Go recruitment assay; assay type: cell-based, human
[17] = system: GALR2 and its mutants; assay: NanoBiT mini-Gq recruitment assay; assay type: cell-based, human; settings: mutations of conserved TM3/TM5/TM6 residues in GALR2
[18] = system: GALR2 with ICL3 of GALR1; assay: GALR2-Go coupling with ICL3 substitution; assay type: cell-based, human; settings: ICL3 (214 to 225) of GALR2 replaced by GALR1 residues
[19] = system: GALR2; assay: NanoBiT assay, GALR2-Gαs coupling; assay type: cell-based, human; settings: E(-3) in Gαs substituted with the equivalent Gαq residue
[20] = system: GALR2; assay: GALR2-Gq coupling of ICL2 and TM5 mutants; assay type: cell-based, human; settings: L^5.65A mutation in GALR2
[21] = system: GALR1; settings: cited from earlier work
[22] = system: GALR2; settings: cited from earlier work
[23] = system: GALR3; settings: mutation of equivalent residue F263 in GALR3; cited from earlier work
[24] = system: GALR2; settings: specific for GALR2 and GALR3; cited from earlier work
[25] = system: GALR3; settings: specific for GALR2 and GALR3; cited from earlier work
[26] = S235^ICL3 and K237^ICL3 mutations in GALR1

Molecule: [Zn+2] [Zn^2+, ZnCl2]
character of Zn2+ inhibition ([1]; 1 μM galanin, wild-type GALR1, HEK-293T cells, pH 7.3): saturable or has a “ceiling” level
effect of mutation on zinc inhibition ([1]; GALR1 H112^3.29A, 1 μM galanin, HEK-293T cells): little influence
effect of mutation on zinc inhibition ([1]; GALR1 H263^6.51F, 1 μM galanin, HEK-293T cells): little influence
effect of mutation on zinc inhibition ([1]; GALR1 H264^6.52F, 1 μM galanin, HEK-293T cells): little influence
effect on galanin concentration-response curve ([1]; H267^6.55A mutant of GALR1, HEK-293T cells): little effect
allosteric modulation of GALR1 ([1]; conclusion from NanoBiT assay, listed as zinc ion): negative allosteric regulator
effect on galanin-induced GALR2 activation ([2]; below millimolar Zn2+): little effect
Zn2+ concentration at which galanin activation of GALR2 is diminished ([2]; galanin-induced, above the physiological concentration): millimolar range
inhibition of galanin binding to the receptors [3]: can inhibit galanin binding
effect on AMPA receptors [4]: inhibits
effect on NMDA receptors [5]: inhibits

Molecule: N-terminal region of galanin ([1]–[16]): N-terminal region of galanin
binding affinity for the receptors relative to full-length galanin [3]: comparable to the full-length galanin

fold reduction of galanin potency, cAMP inhibition assay [6]: 100 fold
fold reduction of agonist potency, cAMP inhibition assay [7]: 370 fold
fold reduction of galanin potency, IP1 accumulation assay [8]: 100 fold
fold reduction of galanin potency, IP1 accumulation assay [9]: 100 fold
fold reduction of galanin potency, IP1 accumulation assay [10]: 10 fold
fold reduction of galanin potency, cAMP inhibition assay [11]: 100 fold
fold reduction of galanin potency, IP1 accumulation assay [12]: 100 fold
Molecule: galanin peptide 1 through 30

Molecule: galanin-like peptide (GALP): endogenous galanin-like peptide (APAHRGRGGWTLNSAGYLLGPVLHLPQMGDQDGKRETALEILDLWKAIDGLPYSHPPQPS; Galanin-like peptide; UniProt Q9UBC7 25-84, looked up)
activation of GALRs [13]: activate GALRs

Molecule: galanin: 29- or 30-amino acid peptide, endogenous ligand; galanin peptide 1 through 30 (MedChemExpress)
reduction of agonist (galanin) potency vs wild type ([14]; V274G mutant of GALR1 (ECL3), 1 μM forskolin): about 370 fold
effect of mutation on galanin potency ([14]; W188^ECL2 mutant of GALR1, compared with H176^ECL2 mutant of GALR2): distinct effect
reduction of galanin potency vs wild type ([14]; mutation of F275 (ECL3) in GALR1, 1 μM forskolin): ~100 fold
reduction of galanin potency vs wild type ([15]; Q82^2.61 to alanine mutant of GALR2): ~100 fold
effect of mutation on galanin potency ([15]; Q263A mutant of GALR2 (ECL3)): little effect
reduction of galanin potency vs wild type ([15]; R184^5.35A mutant of GALR2): about 10 fold
reduction of galanin potency vs wild type ([15]; mutation of F264 (ECL3) in GALR2): ~100 fold
effect of mutation on galanin maximum response [16, 26]: dramatically reduced
effect of mutation on galanin potency [16, 26]: modest effect
recruitment of Gi ([16]; mutations of conserved TM3/TM5/TM6 residues in GALR1): impair
recruitment of Gq [17]: impair
ability of GALR2 to bind Go [18]: acquired the ability to bind Go
coupling efficiency between GALR2 and Gs [19]: significantly increased
effect of mutation on galanin potency [20]: significantly decreased
reduction of galanin binding affinity ([21]; H267^6.55 mutation of GALR1): more than 100 fold
galanin binding affinity of mutants ([21]; mutations of F115 and H264 of GALR1): significantly reduce
galanin binding to mutant ([22]; mutation of F264 in GALR2): completely abolishes
galanin binding affinity of mutants ([22]; mutations of F106, H252, H253, I256, W260, and F261 of GALR2): significantly reduce
galanin binding to mutant [23]: completely abolishes
binding affinity for GALRs [3]: subnanomolar range

B1: spexin: endogenous peptide spexin has A7M and G8L mutations in galanin (peptide, UniProt Q9BT56 27-116, looked up)
Spexin: APQRLLERRNWTPQAMLYLKGAQGRRFISDQSRRKDLSDRPLPERRSPNPQLLTIPEAATILLASLQKSPEDEEKNFDQTRFLEDSLLNW
modifications: Spexin
activation of GALRs [13]: activate GALRs
activation of GALR2 [24]: specifically activates GALR2 and GALR3
activation of GALR3 [25]: specifically activates GALR2 and GALR3
